Values joined by “and” are separate entries in the source; they are usually repeats but may differ in a detail not shown here. Equal entries are not always repeated. Toxic doses and inconclusive results are not listed. Rule as the data show it: active = T/C of 150% or more; inactive = T/C below 125%.
System: L1210 leukemia ip in BDF1 mice, survival T/C
Assay: NCI In Vivo Anticancer Drug Screen. Data for tumor model L1210 Leukemia (intraperitoneal) in B6D2F1 (BDF1) mice
Conditions: endpoint: mean survival time, higher = longer survival
Procedure, shortened: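 Tumor was transplanted into mice, which were then dosed with test compound or vehicle alone. Survival was recorded for each group, and the treated figure was expressed relative to the control figure.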

[1] = dose: 100.0 mg/kg/injection, schedule: Q04DX003 (ip), vehicle: Klucel (hydroxypropylcellulose) (HPC)
[2] = dose: 200.0 mg/kg/injection, schedule: Q04DX003 (ip), vehicle: Klucel (hydroxypropylcellulose) (HPC)
[3] = dose: 400.0 mg/kg/injection, schedule: Q04DX003 (ip), vehicle: Klucel (hydroxypropylcellulose) (HPC)
[4] = dose: 25.0 mg/kg/injection, schedule: Q01DX009 (ip), vehicle: saline with Tween-80
[5] = dose: 50.0 mg/kg/injection, schedule: Q01DX009 (ip), vehicle: saline with Tween-80
[6] = dose: 100.0 mg/kg/injection, schedule: Q01DX009 (ip), vehicle: saline with Tween-80
[7] = dose: 100.0 mg/kg/injection, schedule: Q01DX001 (ip), vehicle: saline
[8] = dose: 200.0 mg/kg/injection, schedule: Q01DX001 (ip), vehicle: saline
[9] = dose: 400.0 mg/kg/injection, schedule: Q01DX001 (ip), vehicle: saline
[10] = dose: 100.0 mg/kg/injection, schedule: Q01DX009 (ip), vehicle: Klucel (hydroxypropylcellulose) (HPC)
[11] = dose: 200.0 mg/kg/injection, schedule: Q01DX009 (ip), vehicle: Klucel (hydroxypropylcellulose) (HPC)
[12] = dose: 400.0 mg/kg/injection, schedule: Q01DX009 (ip), vehicle: Klucel (hydroxypropylcellulose) (HPC)
[13] = dose: 50.0 mg/kg/injection, schedule: Q01DX009 (ip), vehicle: Klucel (hydroxypropylcellulose) (HPC)
[14] = dose: 50.0 mg/kg/injection, schedule: Q01DX009 (ip), vehicle: saline
[15] = dose: 100.0 mg/kg/injection, schedule: Q01DX009 (ip), vehicle: saline
[16] = dose: 100.0 mg/kg/injection, schedule: Q01DX001 (ip), vehicle: carboxymethylcellulose (CMC)
[17] = dose: 200.0 mg/kg/injection, schedule: Q01DX001 (ip), vehicle: carboxymethylcellulose (CMC)
[18] = dose: 100.0 mg/kg/injection, schedule: Q04DX003 (ip), vehicle: saline
[19] = dose: 200.0 mg/kg/injection, schedule: Q01DX009 (ip), vehicle: saline
[20] = dose: 200.0 mg/kg/injection, schedule: Q04DX003 (ip), vehicle: saline
[21] = dose: 400.0 mg/kg/injection, schedule: Q04DX003 (ip), vehicle: saline
[22] = dose: 25.0 mg/kg/injection, schedule: Q01DX009 (ip), vehicle: saline
[23] = dose: 400.0 mg/kg/injection, schedule: Q01DX009 (ip), vehicle: saline

Measured: T/C

c1ccc2c(c1)NC(C1Nc3ccccc3S1)S2 (configuration not stated)
inactive: dose: 100.0 mg/kg/injection, schedule: Q01DX001 (ip), vehicle: acetone 90 % of control | [1] 93 % of control | dose: 200.0 mg/kg/injection, schedule: Q01DX001 (ip), vehicle: acetone 88 % of control | [2] 93 % of control | dose: 400.0 mg/kg/injection, schedule: Q01DX001 (ip), vehicle: acetone 88 % of control | [3] 90 % of control

O=C(O)C(Br)C(Br)C(=O)Nc1cccc2ccccc12 (configuration not stated)
inactive: [4] 97 % of control | [5] 96 % of control | [6] 96 % of control and 98 % of control

Oc1c(CN2CCOCC2)cc(N=Nc2ccccc2)c(O)c1CN1CCOCC1
inactive: [7] 88 % of control | [8] 104 % of control | [9] 88 % of control

Cc1cc(NS(=O)(=O)c2ccccc2)c2c(c1NS(=O)(=O)c1ccccc1)CC=CC2
inactive: [10] 103 % of control | [1] 103 % of control | [11] 100 % of control | [2] 95 % of control | [12] 111 % of control | [3] 94 % of control

Cc1ccc([PH+](c2ccc(C)cc2)c2ccc(C)cc2)cc1.Cc1ccc([PH+](c2ccc(C)cc2)c2ccc(C)cc2)cc1.[Cl][Hg][Cl]
inactive: [13] 86 % of control | [10] 91 % of control | [11] 86 % of control

NC(N)=NNc1ccccc1
inactive: [4] 115 % of control | [5] 107 % of control | [14] 95 % of control | [6] 86 % of control | [15] 97 % of control

CCOP(=O)(NCCc1ccccc1)OCC
inactive: dose: 50.0 mg/kg/injection, schedule: Q01DX001 (ip), vehicle: carboxymethylcellulose (CMC) 109 % of control | [16] 109 % of control | [17] 101 % of control

CC1=N/C(=C/c2ccccc2Cl)C(=O)O1
inactive: [13] 93 % of control | [10] 90 % of control | [1] 95 % of control | [11] 93 % of control | [2] 98 % of control

COc1ccc(OC)c(/C=C(C(=O)O)/C(=C/c2cc(OC)ccc2OC)C(=O)O)c1
inactive: dose: 100.0 mg/kg/injection, schedule: Q04DX003 (ip), vehicle: saline with Tween-80 105 % of control | dose: 200.0 mg/kg/injection, schedule: Q04DX003 (ip), vehicle: saline with Tween-80 102 % of control | dose: 400.0 mg/kg/injection, schedule: Q04DX003 (ip), vehicle: saline with Tween-80 97 % of control

CC(=O)CC(C)(C)c1ccccc1
inactive: dose: 100.0 mg/kg/injection, schedule: Q01DX001 (ip), vehicle: Klucel (hydroxypropylcellulose) (HPC) 100 % of control | [15] 103 % of control | [18] 103 % of control | dose: 200.0 mg/kg/injection, schedule: Q01DX001 (ip), vehicle: Klucel (hydroxypropylcellulose) (HPC) 95 % of control | [19] 101 % of control | [20] 100 % of control | dose: 400.0 mg/kg/injection, schedule: Q01DX001 (ip), vehicle: Klucel (hydroxypropylcellulose) (HPC) 94 % of control | [21] 111 % of control

COc1ccc(NC(=O)COc2ccccc2Br)cc1
inactive: [10] 95 % of control | [1] 101 % of control | [11] 97 % of control | [2] 96 % of control | [12] 93 % of control | [3] 93 % of control

OC(c1cc2ccc(C(F)(F)F)cc2c2cc(C(F)(F)F)ccc12)C1CCCCN1 (configuration not stated)
inactive: dose: 12.5 mg/kg/injection, schedule: Q01DX009 (ip), vehicle: saline 93 % of control | [22] 103 % of control | [14] 108 % of control

Nc1ccc(OCc2ccc(S(=O)(=O)F)c(Cl)c2)c(Cl)c1
inactive: dose: 100.0 mg/kg/injection, schedule: Q01DX009 (ip), vehicle: other 91 % of control | [18] 93 % of control | dose: 200.0 mg/kg/injection, schedule: Q01DX009 (ip), vehicle: other 92 % of control | [20] 95 % of control | [21] 98 % of control

COC(=O)C(Cc1c[nH]c2ccccc12)[N+](C)(C)C (configuration not stated)
inactive: dose: 35.0 mg/kg/injection, schedule: Q01DX Z (ip), vehicle: saline 95 % of control | dose: 50.0 mg/kg/injection, schedule: Q01DX Z (ip), vehicle: saline 97 % of control

Cn1ccc(=O)nc1
inactive: [15] 94 % of control | [19] 103 % of control | [23] 100 % of control

COc1cccc(NC(=O)NCCN(C)c2ccccc2)c1
inactive: [10] 104 % of control | [11] 88 % of control | [12] 92 % of control

Cc1ccc(S(=O)(=O)C2CCCC2Cl)cc1 (configuration not stated)
inactive: [16] 109 % of control | [7] 107 % of control | [17] 104 % of control | [8] 104 % of control | dose: 400.0 mg/kg/injection, schedule: Q01DX001 (ip), vehicle: carboxymethylcellulose (CMC) 104 % of control | [9] 87 % of control

CCOC(=O)CNC(N)=O
inactive: [15] 96 % of control | [19] 107 % of control | [23] 96 % of control

COc1ccc2nc3cc(Cl)ccc3c(NCCNCCNCCNc3c4ccc(Cl)cc4nc4ccc(OC)cc34)c2c1
inactive: dose: 6.25 mg/kg/injection, schedule: Q01DX009 (ip), vehicle: saline with Tween-80 100 % of control | dose: 12.5 mg/kg/injection, schedule: Q01DX009 (ip), vehicle: saline with Tween-80 91 % of control | [4] 101 % of control | [6] 107 % of control

CCCCCCCCCCCCc1cc2ccccc2c2ccccc12
inactive: [7] 98 % of control | [8] 95 % of control | [9] 89 % of control

CN1CCC=C(C(=O)N2c3ccccc3Sc3ccccc32)C1
inactive: [22] 88 % of control | dose: 25.0 mg/kg/injection, schedule: Q04DX003 (ip), vehicle: saline 97 % of control | [14] 96 % of control | dose: 50.0 mg/kg/injection, schedule: Q04DX003 (ip), vehicle: saline 96 % of control | [15] 102 % of control | [18] 96 % of control and 105 % of control

CNNC(=O)c1ccncc1
inactive: dose: 62.0 mg/kg/injection, schedule: Q01DX015 (ip), vehicle: water 91 % of control | dose: 125.0 mg/kg/injection, schedule: Q01DX015 (ip), vehicle: water 98 % of control

O=S(=O)(C1=C(c2ccccc2)CCCC1)c1ccccc1
inactive: dose: 100.0 mg/kg/injection, schedule: Q01DX009 (ip), vehicle: acetone 104 % of control

O=C1CCCC/C1=N/Nc1ccccc1
inactive: dose: 5.0 mg/kg/injection, schedule: Q01DX009 (ip), vehicle: saline with Tween-80 93 % of control | dose: 5.0 mg/kg/injection, schedule: Q04DX003 (ip), vehicle: saline with Tween-80 98 % of control | dose: 10.0 mg/kg/injection, schedule: Q01DX009 (ip), vehicle: saline with Tween-80 102 % of control | dose: 10.0 mg/kg/injection, schedule: Q04DX003 (ip), vehicle: saline with Tween-80 102 % of control | dose: 20.0 mg/kg/injection, schedule: Q01DX009 (ip), vehicle: saline with Tween-80 95 % of control | dose: 20.0 mg/kg/injection, schedule: Q04DX003 (ip), vehicle: saline with Tween-80 99 % of control

O=[N+]([O-])c1ccc(-n2ccnc2)c([N+](=O)[O-])c1
inactive: dose: 100.0 mg/kg/injection, schedule: Q04DX002 (ip), vehicle: Klucel (hydroxypropylcellulose) (HPC) 100 % of control | dose: 200.0 mg/kg/injection, schedule: Q04DX002 (ip), vehicle: Klucel (hydroxypropylcellulose) (HPC) 100 % of control | dose: 400.0 mg/kg/injection, schedule: Q04DX002 (ip), vehicle: Klucel (hydroxypropylcellulose) (HPC) 93 % of control

O=N[O-].O=N[O-].[Co].[NH2-].[NH2-].[NH2-].[NH2-]
inactive: dose: 100.0 mg/kg/injection, schedule: Q04DX002 (ip), vehicle: saline with Tween-80 112 % of control

Reference: PubChem BioAssay AID248 (DTP/NCI, 2004)
